Measured values taken from ChEMBL document CHEMBL1143941, “Design, synthesis and structure-activity study of shorter hexa peptide analogues as HIV-1 protease inhibitors” (Bioorg Med Chem, 2008).

The molecules below were run on Human immunodeficiency virus 1 (assay: Inhibition of recombinant HIV1 protease at 100 ug/ml).
Work on H-LLEYVY-OH yielded an inhibition of 58.6%.
For H-LLEYVM-OH, the inhibition was 47.2%.
H-LLEYVW-OH showed an inhibition of 64.9%.
H-LLEYVF-OH showed an inhibition of 52.3%.
CC(=O)N[C@H](C(=O)N[C@H](C(=O)N[C@@H](CC(C)C)[C@@H](O)CC(=O)N[C@@H](C)C(=O)N[C@@H](CC(C)C)[C@@H](O)CC(=O)O)C(C)C)C(C)C gave an inhibition of 98.5%.
